Measured values reported in US4206156A, “Hydroxyaminohydrocarbonphosphonic acids” (Fujisawa Pharmaceutical Company, Limited, priority 1976, dated 1980).
Structures can show the parent of a compound that is named as a salt.

Columns and labels:
[1] = test system: pathogenic microorganisms; conditions: in words; from work filed as U.S. application Ser. No. 819,551; cited from earlier work
[2] = test system: Pseudomonas aeruginosa 1101-76; test: Protecting effect in experimental mice infections; assay type: in vivo, mice (ICR-strain); conditions: Pseudomonas aeruginosa 1101-76, 1.2 × 10^6 viable cells per mouse, survival 1 week
Method: Male mice of ICR-strain, aged 4 weeks and weighing 24±1 g., were used. Each experimental group consists of 8 animals.
A prescribed amount of pathogenic bacteria, suspended in 5% aqueous Mucin solution (0.5 ml.), was intraperitoneally injected into the test animals.
Subsequently, the above test compound in water (0.25 ml.) was administered to each of the test animals, subcutaneously three times at 0, 1, 3 hours or orally once at 1 hour after the infection of pathogenic bacteria, respectively.

Salmonella typhi 0-901 [3] = test: M.I.C., serial agar dilution, nutrient agar (inoculum 10^6 cells/ml); assay type: cell-based; conditions: Salmonella enterica, 20 h
Method: (§1) M.I.C. test was conducted by the usual serial agar dilution method, (inoculum:10^6 cells/ml.), using a nutrient agar which was incubated at 37° C. for 20 hours. M.I.C. value is expressed as the minimum concentration of the monoammonium salt of 3-(N-formyl-N-hydroxyamino)-propylphosphonic acid (mcg/ml.) which inhibits growth of microorganisms.

[4] = test system: Proteus mirabilis 1432-75; test: as above; assay type: cell-based; conditions: 143275, 37° C., 20 hours
Method: as §1

Sarcina lutea PCI 1001 [5] = test: as above; assay type: cell-based; conditions: Micrococcus luteus, PCI1001, 37° C., 20 hours
Method: as §1

[6] = test system: Serratia marcescens 1421-4; test: as above; assay type: cell-based; conditions: 14214, 37° C., 20 hours
Method: as §1

[7] = test system: Salmonella paratyphi A-1015; test: as above; assay type: cell-based; conditions: Salmonella enterica, 20 h
Method: as §1

Shigella flexneri IaEW8 [8] = test: as above; assay type: cell-based; conditions: 37° C., 20 hours
Method: as §1

[9] = test system: Salmonella typhimurium 1406; test: as above; assay type: cell-based; conditions: Salmonella enterica, 37° C., 20 hours
Method: as §1

[10] = test system: Enterobacter cloacae 1401-4; test: as above; assay type: cell-based; conditions: 14014, 37° C., 20 hours
Method: as §1

Proteus rettgeri 1434-3 [11] = test: as above; assay type: cell-based; conditions: Providencia rettgeri, 14343, 37° C., 20 hours
Method: as §1

[12] = test system: Escherichia coli 1341-18(R); test: as above; assay type: cell-based; conditions: 20 h
Method: as §1

[13] = test system: Staphylococcus aureus FDA209P JC-1; test: as above; assay type: cell-based; conditions: 37° C., 20 hours
Method: as §1

[14] = test system: Proteus inconstans 1436-21; test: as above; assay type: cell-based; conditions: Providencia alcalifaciens, 143621, 37° C., 20 hours
Method: as §1

Proteus morganii 1433-2 [15] = test: as above; assay type: cell-based; conditions: Morganella morganii, 14332, 37° C., 20 hours
Method: as §1

[16] = test system: Salmonella enteritidis 1891; test: as above; assay type: cell-based; conditions: Salmonella enterica, 37° C., 20 hours
Method: as §1

Shigella sonnei I EW33 [17] = test: as above; assay type: cell-based; conditions: IEW33, 37° C., 20 hours
Method: as §1

[18] = test system: Bacillus substilis ATCC6633; test: as above; assay type: cell-based; conditions: ATCC6633, 20 h
Method: as §1

[19] = test system: Klebsiella pneumoniae NCTC 418; test: as above; assay type: cell-based; conditions: NCTC418, 37° C., 20 hours
Method: as §1

[20] = test system: Proteus vulgaris IAM 1025; test: as above; assay type: cell-based; conditions: IAM1025, 37° C., 20 hours
Method: as §1

[21] = test system: Escherichia coli NIHJ JC-2; test: as above; assay type: cell-based; conditions: NIHJJC2, 37° C., 20 hours
Method: as §1

[22] = test system: Citrobacter freundii 1381-3; test: as above; assay type: cell-based; conditions: 13813, 37° C., 20 hours
Method: as §1

[23] = test system: Enterobacter aerogenes 1402-10; test: as above; assay type: cell-based; conditions: Klebsiella aerogenes, 140210, 37° C., 20 hours
Method: as §1

[24] = test system: Pseudomonas aeruginosa IAM 1095; test: as above; assay type: cell-based; conditions: IAM1095, 37° C., 20 hours
Method: as §1

[25] = test system: Staphylococcus aureus FDA209PJC-1; test: M.I.C., serial agar dilution, nutrient agar (inoculum 10^5 cells/ml); assay type: cell-based; conditions: FDA209PJC1, 37° C., 18 hours
Method: (§2) M.I.C. test was conducted by an usual serial agar dilution method, (inoculum: 10^5 cells/ml.), using a nutrient agar which was incubated at 37° C. for 18 hours. M.I.C. value is expressed as the minimum concentration of the monopotassium salt of 3-(N-formyl-N-hydroxyamino)-trans-1-propenylphosphonic acid (mcg/ml.) which inhibits growth of microorganisms.

Salmonella typhi 0-901 [26] = test: as above; assay type: cell-based; conditions: Salmonella enterica, 37° C., 18 hours
Method: as §2

[27] = test system: Proteus mirabilis 1432-75; test: as above; assay type: cell-based; conditions: 143275, 37° C., 18 hours
Method: as §2

Sarcina lutea PCI 1001 [28] = test: as above; assay type: cell-based; conditions: Micrococcus luteus, PCI1001, 37° C., 18 hours
Method: as §2

[29] = test system: Serratia marcescens 1421-4; test: as above; assay type: cell-based; conditions: 14214, 37° C., 18 hours
Method: as §2

[30] = test system: Salmonella paratyphi A-1015; test: as above; assay type: cell-based; conditions: Salmonella enterica, 37° C., 18 hours
Method: as §2

Shigella flexneri IaEW8 [31] = test: as above; assay type: cell-based; conditions: 37° C., 18 hours
Method: as §2

[32] = test system: Salmonella typhimurium 1406; test: as above; assay type: cell-based; conditions: Salmonella enterica, 37° C., 18 hours
Method: as §2

[33] = test system: Enterobacter cloacae 1401-4; test: as above; assay type: cell-based; conditions: 14014, 37° C., 18 hours
Method: as §2

Proteus rettgeri 1434-3 [34] = test: as above; assay type: cell-based; conditions: Providencia rettgeri, 14343, 37° C., 18 hours
Method: as §2

[35] = test system: Bacillus subtilis ATCC6633; test: as above; assay type: cell-based; conditions: 37° C., 18 hours
Method: as §2

[36] = test system: Proteus inconstans 1436-21; test: as above; assay type: cell-based; conditions: Providencia alcalifaciens, 143621, 37° C., 18 hours
Method: as §2

[37] = test system: Escherichia coli 1341-18(R^+); test: as above; assay type: cell-based; conditions: 37° C., 18 hours
Method: as §2

Proteus morganii 1433-2 [38] = test: as above; assay type: cell-based; conditions: Morganella morganii, 14332, 37° C., 18 hours
Method: as §2

[39] = test system: Salmonella enteritidis 1891; test: as above; assay type: cell-based; conditions: Salmonella enterica, 37° C., 18 hours
Method: as §2

Shigella sonnei I EW33 [40] = test: as above; assay type: cell-based; conditions: IEW33, 37° C., 18 hours
Method: as §2

[41] = test system: Klebsiella pneumoniae NCTC 418; test: as above; assay type: cell-based; conditions: NCTC418, 37° C., 18 hours
Method: as §2

[42] = test system: Proteus vulgaris IAM 1025; test: as above; assay type: cell-based; conditions: IAM1025, 37° C., 18 hours
Method: as §2

[43] = test system: Citrobacter freundii 1381-3; test: as above; assay type: cell-based; conditions: 13813, 37° C., 18 hours
Method: as §2

[44] = test system: Enterobacter aerogenes 1402-10; test: as above; assay type: cell-based; conditions: Klebsiella aerogenes, 140210, 37° C., 18 hours
Method: as §2

[45] = test system: Pseudomonas aeruginosa IAM 1095; test: as above; assay type: cell-based; conditions: IAM1095, 37° C., 18 hours
Method: as §2

Acute toxicity, mouse = test: Acute toxicity, mouse; set-up: species or system Mouse (ICR-strain); conditions: in vivo, observed one week
Text: Male and Female mice of ICR-strain, aged 6 weeks were used.
(§3) Litchfield-Wilcoxon method

Acute toxicity, rat = conditions: in vivo, male, observed one week
Text: as §3

CC(=O)N(O)CCCP(=O)(O)O [FR-900098, 3-(N-acetyl-N-hydroxyamino)propylphosphonic acid]
antimicrobial activities [1]: antimicrobial activities against various pathogenic microorganisms

O=CN(O)CCCP(=O)(O)O [monoammonium salt of 3-(N-formyl-N-hydroxyamino)propylphosphonic acid]
ED50, oral administration ([2]; orally once at 1 hour): 0.280 mg/mouse
ED50, subcutaneous administration ([2]; s.c. three times at 0, 1, 3 hours): 0.228 mg/mouse
MIC (Salmonella typhi 0-901 [3]): 0.39 µg/mL
MIC [4]: 6.25 µg/mL
MIC (Sarcina lutea PCI 1001 [5]): ≤ 0.1 µg/mL
MIC [6]: 100 µg/mL
MIC [7]: 12.5 µg/mL
MIC (Shigella flexneri IaEW8 [8]): 12.5 µg/mL
MIC [9]: 25 µg/mL
MIC [10]: 6.25 µg/mL
MIC (Proteus rettgeri 1434-3 [11]): 1.56 µg/mL
MIC [12]: 12.5 µg/mL
MIC [13]: > 800 µg/mL
MIC [14]: 3.13 µg/mL
MIC (Proteus morganii 1433-2 [15]): > 800 µg/mL
MIC [16]: 0.39 µg/mL
MIC (Shigella sonnei I EW33 [17]): 100 µg/mL
MIC [18]: 6.25 µg/mL
MIC [19]: 100 µg/mL
MIC [20]: 3.13 µg/mL
MIC [21]: 200 µg/mL
MIC [22]: 3.13 µg/mL
MIC [23]: 6.25 µg/mL
MIC [24]: 0.78 µg/mL

O=CN(O)C/C=C/P(=O)(O)O [monopotassium salt of 3-(N-formyl-N-hydroxyamino)-trans-1-propenylphosphonic acid]
MIC [25]: > 100 µg/mL
MIC (Salmonella typhi 0-901 [26]): 0.78 µg/mL
MIC [27]: 0.39 µg/mL
MIC (Sarcina lutea PCI 1001 [28]): 0.2 µg/mL
MIC [29]: > 100 µg/mL
MIC [30]: 25 µg/mL
MIC (Shigella flexneri IaEW8 [31]): 50 µg/mL
MIC [32]: 12.5 µg/mL
MIC [33]: 12.5 µg/mL
MIC (Proteus rettgeri 1434-3 [34]): 6.25 µg/mL
MIC [35]: 6.25 µg/mL
MIC [36]: 25 µg/mL
MIC [37]: 25 µg/mL
MIC (Proteus morganii 1433-2 [38]): > 100 µg/mL
MIC [39]: 6.25 µg/mL
MIC (Shigella sonnei I EW33 [40]): 25 µg/mL
MIC [41]: 100 µg/mL
MIC [42]: 1.56 µg/mL
MIC [43]: 12.5 µg/mL
MIC [44]: 50 µg/mL
MIC [45]: 1.56 µg/mL

O=CN(O)CCCP(=O)(O)O [monosodium salt of 3-(N-formyl-N-hydroxyamino)propylphosphonic acid]
LD50 at 168 h (Acute toxicity, mouse; po, female, oral, read-out: LD50, oral administration): > 11000 mg/kg
LD50 at 168 h (Acute toxicity, mouse; po, male, oral, read-out: LD50, oral administration): 11000 mg/kg
LD50 at 168 h (Acute toxicity, mouse; sc, female, subcutaneous, read-out: LD50, subcutaneous administration): 8270 mg/kg
LD50 at 168 h (Acute toxicity, mouse; sc, male, subcutaneous, read-out: LD50, subcutaneous administration): 8050 mg/kg
LD50 at 168 h (Acute toxicity, rat; oral, read-out: LD50, oral administration): > 11000 mg/kg
LD50 at 168 h (Acute toxicity, rat; sc, subcutaneous, read-out: LD50, subcutaneous administration): 8000 mg/kg
